Experimental data from patent US20240074968A1, “ORAL PHARMACEUTICAL COMPOSITION AND METHOD FOR PRODUCING PARTICULATE FORMULATION COMPRISING COMPOSITION” (Sunsho Pharmaceutical Co., Ltd., priority 2016, published 2024).

Experiment: Solubility in water at 20° C.
Type: physicochemical
From the text: The above hydrophobic liquid (B) is a hydrophobic liquid that can dissolve or disperse well the above active ingredient (A) and is not a surfactant. In this case, the “hydrophobicity” of this hydrophobic liquid (B) should disperse as liquid particles containing the active ingredient (A), without dissolving into the water-based composition containing the water-soluble polymer substance (C) and the excipient (D) described below. […] When this “hydrophobicity” is insufficient, it becomes difficult to remain dispersed in the composition while containing the above active ingredient (A), and all or much of the active ingredient (A) becomes contained in the composition as crystals, which makes it impossible to achieve the purpose of the present invention.

CC(O)CO (stereo not shown) [propylene glycol]
solubility in water at 20° C.: exceeding 10 mass %
